Test results taken from PMC9669179 (Epilepsia, 2022).
Like-named read-outs stand apart in the source and are kept apart here.

How the values were obtained:
[1] = CF-1, mouse, in vivo
[2] = in vivo; details: Sprague Dawley, rat, ip
[3] = CF-1, mouse, in vivo; remark: listed apart in the source
[4] = tested on: adult Sprague-Dawley rats; experiment: Maximal electroshock; type: in vivo, rat; details: MES; for Efficacy in rats (number seizure protected /number tested): low dose i.p. (CLB 17, CBZ 3, VPA 165 mg/kg)
[5] = tested on: rats; details: rat, cited from earlier work
[6] = rat, in vivo
[7] = tested on: adult CF-1 mice; details: mouse, MES, i.p.; cited from earlier work
[8] = tested on: adult Sprague-Dawley rats; details: rat, MES, i.p.; cited from earlier work
[9] = in vivo; details: CF-1, mouse, ip
[10] = tested on: adult CF-1 mice; experiment: Maximal electroshock; type: in vivo, mouse; details: MES
[11] = tested on: mice; details: mouse, cited from earlier work
[12] = Sprague Dawley, rat, in vivo
[13] = in vivo; details: CF-1, mouse, ip; remark: listed apart in the source
[14] = in vivo; details: Sprague Dawley, rat, ip; remark: listed apart in the source
[15] = Brain pharmacokinetics in mice
[16] = tested on: adult male CF-1 mice; experiment: 6 Hz 44 mA seizure test in mice; type: in vivo, mouse
[17] = Brain pharmacokinetics in rats; details: rat
[18] = tested on: adult male CF-1 mice; details: mouse, 6 Hz 44 mA, i.p.; cited from earlier work
[19] = Plasma pharmacokinetics in mice; details: CF-1, mouse, in vivo, ip
[20] = Plasma pharmacokinetics in rats; details: Sprague Dawley, rat, in vivo, ip
[21] = mouse, low dose i.p.: CLB 7, CBZ 7, VPA 260, LEV 20 mg/kg
[22] = low dose i.p.: CLB 17, CBZ 3, VPA 165, LEV 14 mg/kg

With NC(=O)N1c2ccccc2C=Cc2ccccc21 [CBZ, carbamazepine] the “Brain Dose Prop (AUC)” value [1] was 1.64, the “Brain t1/2” value ([1]; ip) was 59.4 min and the Tmax [2] was 15 min. The half-life ([2]; Brain t1/2) was 46.2 min, the “High-dose exposures greater than expected from low-dose” value [3] was 50 - 60% and the “Plasma Dose Prop (AUC)” value [3] was 1.49. The “Plasma Dose Prop (Cmax)” value [3] was 0.917, the “Plasma t1/2” value ([3]; ip) was 66.6 min and the “Efficacy in rats (number seizure protected /number tested)” value (from here on “Efficacy in rats”) ([4]; time test 0.25 h) was 1/4. For the same compound, the “Efficacy in rats” value ([4]; time test 0.5 h) was 1/4, the “Efficacy in rats” value ([4]; time test 1 h) was 0/4 and the “Efficacy in rats” value ([4]; time test 2 h) was 0/4. The “Efficacy in rats” value ([4]; time test 4 h) was 0/4, the “Efficacy in rats” value ([4]; time test 8 h) was 0/4 and the “Period for which 100% seizure protection was sustained” value ([4]; rats, high-dose CBZ i.p.) was ~ 2 hrs. The Seizure protection ([4]; rats, high-dose CBZ i.p.) was 100%, the “Seizure protection (% protected)” value ([4]; rats, low-dose CBZ i.p., within the first hour) was 25% and the “TD50 - high dose” value ([5]; in vivo, ip) was 24 mg/kg. For the same compound, the “Plasma Dose Prop (AUC)” value ([6]; Sprague Dawley) was 2.29, the “Plasma Dose Prop (Cmax)” value ([6]; Sprague Dawley) was 1.138 and the “Plasma t1/2” value ([6]; Sprague Dawley, ip) was 70.8 min. For the same compound, the “High-dose concentrations relative to expected from low-dose” value [6] was “approximately two-fold”, the “ED50 - low dose” value [7] was 7 mg/kg and the “ED50 - low dose” value [8] was 3 mg/kg. The Tmax [9] was 15 min, the half-life ([9]; Brain t1/2) was 31.2 min and the “Efficacy in mice (number seizure protected/number tested)” value ([10]; high dose i.p. (CBZ 40 mg/kg), time test 0.25 h) was 4/4. The “Efficacy in mice (number seizure protected/number tested)” value ([10]; high dose i.p. (CBZ 40 mg/kg), time test 0.5 h) was 4/4, the “Efficacy in mice (number seizure protected/number tested)” value ([10]; high dose i.p. (CBZ 40 mg/kg), time test 1 h) was 4/4 and the “Efficacy in mice (number seizure protected/number tested)” value ([10]; high dose i.p. (CBZ 40 mg/kg), time test 2 h) was 4/4. The “Efficacy in mice (number seizure protected/number tested)” value ([10]; high dose i.p. (CBZ 40 mg/kg), time test 4 h) was 4/4, the “Efficacy in mice (number seizure protected/number tested)” value ([10]; high dose i.p. (CBZ 40 mg/kg), time test 8 h) was 0/4 and the “Efficacy in mice (number seizure protected/number tested)” value ([10]; low dose i.p. (CBZ 7 mg/kg), time test 0.25 h) was 3/4. The “Efficacy in mice (number seizure protected/number tested)” value ([10]; low dose i.p. (CBZ 7 mg/kg), time test 0.5 h) was 3/4, the “Efficacy in mice (number seizure protected/number tested)” value ([10]; low dose i.p. (CBZ 7 mg/kg), time test 1 h) was 2/4 and the “Efficacy in mice (number seizure protected/number tested)” value ([10]; low dose i.p. (CBZ 7 mg/kg), time test 2 h) was 0/4. For the same compound, the “Efficacy in mice (number seizure protected/number tested)” value ([10]; low dose i.p. (CBZ 7 mg/kg), time test 4 h) was 0/4, the “Efficacy in mice (number seizure protected/number tested)” value ([10]; low dose i.p. (CBZ 7 mg/kg), time test 8 h) was 0/4 and the “Seizure protection (in words)” value ([10]; mice, high dose CBZ 40 mg/kg i.p.) was “complete protection”. The “TD50 - high dose” value ([11]; in vivo, ip) was 40 mg/kg, the “Brain Dose Prop (AUC)” value [12] was 1.89 and the “Brain t1/2” value ([12]; ip) was 72 min. For the same compound, the Tmax [13] was 15 min, the half-life ([13]; Plasma t1/2) was 78 min and the Tmax [14] was 15 min. The half-life ([14]; Plasma t1/2) was 49.2 min.

In the case of CN1C(=O)CC(=O)N(c2ccccc2)c2cc(Cl)ccc21 [CLB, Clobazam], the “Efficacy in rats” value ([4]; time test 0.25 h) is reported as 0/4, the “Efficacy in rats” value ([4]; time test 0.5 h) is reported as 0/4 and the “Efficacy in rats” value ([4]; time test 1 h) is reported as 0/4. The “Efficacy in rats” value ([4]; time test 2 h) was 0/4, the “Efficacy in rats” value ([4]; time test 4 h) was 0/4 and the “Efficacy in rats” value ([4]; time test 8 h) was 0/4. For the same compound, the “Seizure protection (in words)” value ([4]; rats, high dose i.p. (CLB 37, VPA 315 mg/kg)) was “seizure protection was observed within the first hour”, the “Seizure protection (in words)” value ([4]; rats, low dose i.p. (CLB 17, VPA 165 mg/kg)) was “did not protect” and the Tmax ([15]; CF-1, mouse, in vivo, ip) was 15 min. The “Brain AUC (0-8 hr)” value [15, 21] was 1.74 ng·h/mg, the “Brain Cmax” value [15, 21] was 2.26 ng/mg and the “Brain Cmin” value [15, 21] was 0.014 ng/mg. The “TD50 - high dose” value ([5]; minimum motor impairment test, i.p.) was 37 mg/kg, the “Efficacy in mice (number seizure protected/number tested)” value ([16]; high dose i.p. (CLB 17, VPA 570, LEV 500 mg/kg), time test 0.25 h) was 4/4 and the “Efficacy in mice (number seizure protected/number tested)” value ([16]; high dose i.p. (CLB 17, VPA 570, LEV 500 mg/kg), time test 0.5 h) was 4/4. The “Efficacy in mice (number seizure protected/number tested)” value ([16]; high dose i.p. (CLB 17, VPA 570, LEV 500 mg/kg), time test 1 h) was 3/4, the “Efficacy in mice (number seizure protected/number tested)” value ([16]; high dose i.p. (CLB 17, VPA 570, LEV 500 mg/kg), time test 2 h) was 3/4 and the “Efficacy in mice (number seizure protected/number tested)” value ([16]; high dose i.p. (CLB 17, VPA 570, LEV 500 mg/kg), time test 4 h) was 1/4. The “Efficacy in mice (number seizure protected/number tested)” value ([16]; high dose i.p. (CLB 17, VPA 570, LEV 500 mg/kg), time test 8 h) was 0/4, the “Efficacy in mice (number seizure protected/number tested)” value ([16]; low dose i.p. (CLB 7, VPA 260, LEV 20 mg/kg), time test 0.25 h) was 2/4 and the “Efficacy in mice (number seizure protected/number tested)” value ([16]; low dose i.p. (CLB 7, VPA 260, LEV 20 mg/kg), time test 0.5 h) was 1/4. For the same compound, the “Efficacy in mice (number seizure protected/number tested)” value ([16]; low dose i.p. (CLB 7, VPA 260, LEV 20 mg/kg), time test 1 h) was 3/4, the “Efficacy in mice (number seizure protected/number tested)” value ([16]; low dose i.p. (CLB 7, VPA 260, LEV 20 mg/kg), time test 2 h) was 0/4 and the “Efficacy in mice (number seizure protected/number tested)” value ([16]; low dose i.p. (CLB 7, VPA 260, LEV 20 mg/kg), time test 4 h) was 0/4. The “Efficacy in mice (number seizure protected/number tested)” value ([16]; low dose i.p. (CLB 7, VPA 260, LEV 20 mg/kg), time test 8 h) was 0/4, the “ED50 - low dose” value [8] was 17 mg/kg and the Tmax ([17]; Sprague Dawley, in vivo, ip) was 15 min. For the same compound, the “Brain AUC (0-8 hr)” value [17, 22] was 2.88 ng·h/mg, the “Brain Cmax” value [17, 22] was 2.90 ng/mg and the “Brain Cmin” value [17, 22] was 0.027 ng/mg. For the same compound, the “TD50 - high dose” value ([11]; rotarod test, i.p.) was 17 mg/kg, the “ED50 - low dose” value [18] was 7 mg/kg and the Tmax [19] was 15 min. It also gave a Tmax [20] of 15 min.
